Measured values as given in US9149038B2, “4-amino-6-(heterocyclic)picolinates and 6-amino-2-(heterocyclic)pyrimidine-4-carboxylates and their use as herbicides” (Dow AgroSciences LLC, priority 2013, dated 2015).

Test system: Key Broadleaf and Grass Weed as well as Crop Species
Assay: Pre-Emergent Test I: preemergent herbicidal activity, herbicidal effect rating 14 days after treatment (Table 6)
Type: in vivo
Details: 4 kg ai/ha
Description: Herbicidal evaluations were made visually on a scale of 0 to 100 where 0 represents no activity and 100 represents complete plant death. Pre-Emergent Test I: Seeds of test species were planted into round plastic pots (5-inch diameter) containing sandy loam soil. After planting, all pots were sub-irrigated 16 h prior to compound application. Compounds were dissolved in a 97:3 v/v mixture of acetone and DMSO and diluted to the appropriate concentration in a final application solution containing water, acetone, isopropanol, DMSO and Agri-dex (crop oil concentrate) in a 59:23:15:1.0:1.5 v/v ratio and 0.02% w/v (weight/volume) of Triton X-155 to obtain the spray solution containing the highest application rate. The high application rate was serial diluted with the above application solution to provide delivery of the compound at rates ½×, ¼× and ⅛× of the highest rate (equivalent to 4.0, 2.0, 1.0, and 0.5 kg/ha, respectively). Formulated compound (2.7 mL) was applied pipetted evenly over the soil surface followed by incorporation with water (15 mL). Following treatment, pots were returned to the greenhouse for the duration of the experiment. The greenhouse was programmed for an approximate 15 h photoperiod which was maintained at about 23-29° C. during the day and 22-28° C. during the night. Nutrients and water were added on a regular basis through surface irrigation and supplemental lighting was provided with overhead metal halide 1000-Watt lamps as necessary. Herbicidal effect ratings were obtained 14 days after treatment. All evaluations were made relative to appropriate controls on a scale of 0 to 100 where 0 represents no herbicidal effect and 100 represents plant death or lack of emergence from the soil and are presented as indicated in Table 4.

COC(=O)c1nc(-c2cccc3c2OCO3)c(F)c(N)c1Cl [Compound 71, Methyl 4-amino-6-(benzo[d][1,3]dioxol-4-yl)-3-chloro-5-fluoropicolinate]
Visual Growth Reduction (%) 14 Days After Application ECHCG (barnyardgrass (Echinochloa crus-galli)): F (30-44) | Visual Growth Reduction (%) 14 Days After Application SETFA (giant foxtail (Setaria faberi)): G (0-29) | Visual Growth Reduction (%) 14 Days After Application IPOHE (ivyleaf morningglory (Ipomoea hederecea)): E (45-59) | Visual Growth Reduction (%) 14 Days After Application HELAN (sunflower (Helianthus annuus)): A (95-100) | Visual Growth Reduction (%) 14 Days After Application AVEFA (wild oats (Avena fatua)): F (30-44)
